Experimental findings from patent US20090181972A1, “Novel Inhibitors of Cysteine Proteases, the Pharmaceutical Compositions Thereof and their Therapeutic Applications” (priority 2005, published 2009) are described below.

Read-outs that look alike come from different tables or passages of the source.

In assay [1] the test system is HCT116 colon cancer cells. In words: HCT116 cell viability and proliferation assay (MTS). It is filed as cell-based. Particulars: mean of three independent experiments, read-out: HCT116 GI50 D3. A digest of the protocol:
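HCT116 cells, 10^3 per well, treated 24 h after seeding with eight concentrations from 10 μM to 5 nM (0.5% final DMSO), in triplicate, for 72 h. Viability read by MTS reduction (2 h) at 492 nm. GI50 from sigmoidal variable-slope fit; mean of three independent experiments.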

For assay [2], the target named is T1, USP8 (Homo sapiens, UniProt P40818).
T1 construct: His tag (pFastBac-HT vector) (N); made in house; host or cells: Sf9 or High Five insect cells (baculovirus)
T1 sequence (P40818 1-1118): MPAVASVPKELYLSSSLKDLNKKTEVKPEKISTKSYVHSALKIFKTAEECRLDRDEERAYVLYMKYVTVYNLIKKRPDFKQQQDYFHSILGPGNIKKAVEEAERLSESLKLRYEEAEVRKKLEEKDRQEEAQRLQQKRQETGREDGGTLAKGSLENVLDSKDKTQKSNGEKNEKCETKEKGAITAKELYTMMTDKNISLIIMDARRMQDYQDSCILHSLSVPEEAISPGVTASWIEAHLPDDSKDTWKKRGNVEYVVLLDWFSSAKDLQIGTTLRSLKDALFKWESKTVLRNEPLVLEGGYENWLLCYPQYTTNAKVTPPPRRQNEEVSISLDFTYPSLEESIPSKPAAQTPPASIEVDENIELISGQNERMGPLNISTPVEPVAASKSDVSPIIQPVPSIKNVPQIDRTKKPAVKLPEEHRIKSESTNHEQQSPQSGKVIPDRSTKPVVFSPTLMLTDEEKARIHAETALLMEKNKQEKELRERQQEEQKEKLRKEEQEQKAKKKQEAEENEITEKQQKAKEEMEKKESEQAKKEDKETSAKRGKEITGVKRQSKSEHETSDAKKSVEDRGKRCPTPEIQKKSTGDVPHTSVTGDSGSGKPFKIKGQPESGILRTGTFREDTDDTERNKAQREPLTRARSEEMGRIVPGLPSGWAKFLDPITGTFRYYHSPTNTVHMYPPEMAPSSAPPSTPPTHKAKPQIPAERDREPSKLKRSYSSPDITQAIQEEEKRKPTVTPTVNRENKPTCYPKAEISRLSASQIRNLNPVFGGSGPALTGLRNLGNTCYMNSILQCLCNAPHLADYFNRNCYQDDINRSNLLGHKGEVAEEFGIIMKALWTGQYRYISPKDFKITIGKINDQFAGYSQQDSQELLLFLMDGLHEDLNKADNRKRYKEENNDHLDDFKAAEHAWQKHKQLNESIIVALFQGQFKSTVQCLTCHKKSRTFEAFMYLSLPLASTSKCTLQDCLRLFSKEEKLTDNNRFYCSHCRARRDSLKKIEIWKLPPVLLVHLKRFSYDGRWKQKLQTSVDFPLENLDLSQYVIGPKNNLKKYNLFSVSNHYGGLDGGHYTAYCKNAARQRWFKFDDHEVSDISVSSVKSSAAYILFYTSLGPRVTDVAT
As to the kind of experiment: USP8 activity assay. Particulars: 400 nM Ub-AMC, 630 pM enzyme, pH8.8; pre-incubated 30 minutes at 25° C., 60 minutes at 37° C.; sigmoidal fit; read-out: USP 8. The format is biochemical. The source says: The cDNA encoding USP8 was obtained by PCR amplification from placenta mRNA. USP8 cDNA was subcloned by PCR into a baculovirus expression vector (pFastBac-HT; Invitrogen). A cDNA encoding a mutated USP8 was generated by mutagenic PCR. The corresponding protein encodes a cysteine to alanine substitution at residue 786. The sequences were ascertained by sequencing of the entire open reading frame. Bacmids encoding […] were generated following DH10bac transposition. The corresponding bacmids were transfected. into insect cells (Sf9). Viruses were recovered from culture supernatant and amplified twice. Insect cells (Sf9 or High Five; Invitrogen) were infected for 72 hours. Total cell lysates were harvested and lyzed in lysis buffer (Tris HCl 50 mM pH 7.6; 0.75 % NP40; 500 mM NaCl; 10% glycerol; 1 mM DTT; 10 mM imidazole; Protease Inhibitor Cocktail; AEBSF 20 μg.ml^−1; Aprotinin 10 μg.ml^−1). Proteins were affinity purified on metal affinity resins (Talon Metal affinity resin; BD Biosciences). Bound materials were extensively washed in wash buffer (50 mM Sodium Phosphate pH 7.0; 300 mM NaCl; 10 mM imidazole; 0.5% Triton X-100; 10% glycerol) and eluted from the resin in 250 mM imidazole-containing wash buffer. Proteins were dialyzed in dialysis buffer (Tris HCl pH 7.6 20 mM; NaCl 200 mM; DTT 1 mM; EDTA 1 mM; 10% Glycerol). Proteins purifications were analyzed on 4-12% NuPAGE (Invitrogen).
USP8 was diluted in USP buffer (50 mM Tris HCl; 0.5 mM EDTA; 5 mM DTT; 0.01% Triton X-100; Bovine Serum Albumin 0.05 mg.ml^−1 pH8.8). Compounds stocks (100 mM) were stored at −20° C. in DMSO.
Reactions were performed as duplicates in Black LJL 96 well plates (HE microplates; Molecular Devices; 20 μl final reaction volume).The substrate concentration for USP8 was 400 nM Ub-AMC (Boston Biochem). The concentrations of the enzyme (USP8) in specificity assays was 630 pM. The concentrations were determined in order to perform specificity assays under initial velocities at fixed substrate concentration. Compounds were pre-incubated with enzymes for 30 minutes at 25° C. Reactions were initiated by addition of substrate to the plates containing the enzymes (+/− compounds) diluted in assay buffer. Reactions were incubated for 60 minutes at 37° C. Reactions were stopped by adding acetic acid (100 mM final). Readings were performed on a Pherastar Fluorescent Reader (BMG). λ Emission 380 nm; λ Excitation=460 nm. Data (mean values +/− standard deviation) were analyzed as % of control (no compound) and plotted as percentage versus the Log of the compound concentration using GraphPad (Prism). Data were fitted to a sigmoidal model (variable slope).

The mark [3] stands for this setting: Homo sapiens, HCT-116, 72 hours incubation.

As for `CC(C)c1nnc2nc3c(nn12)-c1ccccc1C3=O` [Example 1l/B, 3-Isopropyl-1,2,3a,4,10-pentaaza-cyclopenta[b]fluoren-9-one], the GI50 in assay [1] (setting [3]) amounted to 157 nM. Moreover, the IC50 in assay [2] came to 186 nM.

As for `COCCOCCOCc1nnc2nc3c(nn12)C(=O)c1ccccc1-3` [Example 1n/A, 1-[2-(2-Methoxy-ethoxy)-ethoxymethyl]-2,3,4,10,10a-pentaaza-cyclopenta[b]fluoren-9-one], the concentration for 50% growth inhibition (GI50) in assay [1] (setting [3]) came to 1910 nM. The IC50 in assay [2] amounted to 347 nM.

As to `CCc1nnc2nc3c(nn12)-c1c(OC)ccc(OC)c1C3=O` [Example 6/B, 3-Ethyl-5,8-dimethoxy-1,2,3a,4,10-pentaaza-cyclopenta[b]fluoren-9-one], the GI50 in assay [1] (setting [3]) came out at 257 nM. In assay [2], the IC50 is 360 nM.

Regarding `CCc1nnc2nc3c(nn12)C(=O)c1cc(OC)c(OC)cc1-3` [Example 5b/A, 1-Ethyl-6,7-dimethoxy-2,3,4,10,10a-pentaaza-cyclopenta[b]fluoren-9-one], the IC50 in assay [2] was 805 nM.

On to `CCCc1nnc2nc3c(nn12)-c1cc(OC)c(OC)cc1C3=O` [Example 5c/B, 6,7-Dimethoxy-3-propyl-1,2,3a,4,10-pentaaza-cyclopenta[b]fluoren-9-one], for which, in assay [1] (setting [3]), the GI50 was 594 nM. Also, in assay [2], the IC50 was 104 nM.

Regarding `COc1cc2c(cc1OC)-c1nn3c(C)nnc3nc1C2=O` [Example 5a/B, 6,7-Dimethoxy-3-methyl-1,2,3a,4,10-pentaaza-cyclopenta[b]fluoren-9-one], the GI50 in assay [1] (setting [3]) came to 818 nM. Besides, in assay [2], the IC50 came out at 46 nM.

As for `CC(C)c1nnc2nc3c(nn12)C(=O)c1ccccc1-3` [Example 1l/A, 1-lsopropyl-2,3,4,10,10a-pentaaza-cyclopenta[b]fluoren-9-one], the GI50 in assay [1] (setting [3]) is 2250 nM.

On to `O=C1c2ccccc2-c2nn3c(C(F)(F)F)nnc3nc21` [Example 1m/B, 3-Trifluoromethyl-1,2,3a,4,10-pentaaza-cyclopenta[b]fluoren-9-one], for which the concentration for 50% growth inhibition (GI50) in assay [1] (setting [3]) is 28 nM. In assay [2], the IC50 amounted to 162 nM.

Consider “6-(7)-Chloro-1-methyl-2,3,4,10,10a-pentaaza-cyclopenta[b]fluoren-9-one [Example 3/A]”, for which the GI50 in assay [1] (72 hours incubation) came to 361 nM. In addition, in assay [2], the IC50 came out at 301 nM.

With `CCc1nnc2nc3c(nn12)-c1cc(OC)c(OC)cc1C3=O` [Example 5b/B, 3-Ethyl-6,7-dimethoxy-1,2,3a,4,10-pentaaza-cyclopenta[b]fluoren-9-one], the GI50 in assay [1] (setting [3]) is 1180 nM. Moreover, in assay [2], the IC50 was found to be 65 nM.
